This note sets out measurements from patent publication US20050080054A1, “Treating androgen decline in aging male (ADAM)-associated conditions with SARMS” (priority 2002, published 2005).

Molecules are shown by their SMILES.

Format in all cases: in vivo, rat
Assay [1] has as its system female rats after ovariectomy. Briefly: Bone mineral content (DEXA) in female rats after ovariectomy. The procedure: One hundred ten female rats were assigned to one of eleven treatment groups. Groups 1-8 were ovariectomized on day one of the study. Groups 9-11 were intact animals. Groups 1-6 received Compound VI by daily subcutaneous injection at doses of 0.1, 0.3, 0.5, 0.75, 1.0, and 3 mg/day, respectively. Groups 7 and 11 received dihydrotestosterone (DHT) at a dose of 1 mg/day. Groups 8 and 9 were ovariectomized and intact control groups, respectively. Group 10 received Compound VI at a dose of 1.0 mg/day. All animals were treated for 120 days. Bone mineral content (BMC) was determined using dual energy x-ray absorptiometry (DEXA) on days 1, 30, 60, 90, and 120.

Assay [2] concerns androgen-responsive tissues (prostate, seminal vesicles, levator ani muscle). Briefly: Dose response of androgenic and anabolic activities (Emax, ED50) compared to TP. The conditions noted are these: for Emax (% of Intact Control): doses 0.1-1.0 mg/day; for Relative Afficacy / Relative Potency: relative to TP. The procedure: FIG. 6: Dose response Curves. Rats were left untreated, or treated with 0.1, 0.3, 0.5, 0.75 and 1.0 mg/day Compound VI, Compound VII or testosterone propionate (TP), and the weight of androgen-responsive tissues (prostate—FIG. 6A, semimal vesicles—FIG. 6B and levator ani muscle—FIG. 6C) was determined. The results are plotted as percentage of the intact control.
(§1) Compound VI and Compound VII were synthesized and characterized in the laboratory of Dr. Duane Miller at the University of Tennessee, Memphis, Tenn. Male Sprague-Dawley rats were purchased from Harlan Biosciences (Indianapolis, Ind.). The animals were maintained on a 12-h cycle of light and dark with food and water available ad libitum. All animal studies were reviewed and approved by the Animal Care and Use Committee of The Ohio State University, and conformed to the Principles of Laboratory Animal Care (NIH publication #85-23, revised 1985). Immature male Sprague-Dawley rats weighing 187 to 214 g were randomly distributed into 9 groups of 5 animals. One day before the initiation of drug treatment, groups 4 through 6 and groups 7 through 9 received unilateral or bilateral orchidectomy, respectively, via a midline scrotal incision. […] All drugs given to animals were freshly prepared as solutions in polyethylene glycol 300 (PEG 300). Groups 4 and 7 received treatment with vehicle alone (i.e., PEG 300). Animals in groups 3, 6, and 9 received testosterone propionate (TP, 0.5 mg/day) via implantation of subdermal osmotic pumps (Model 2002, Durect Corporation, Palo Alto, Calif.). Animals in groups 2, 5, and 8 received Compound VI or Compound VII (0.5 mg/day) via implantation of subdermal osmotic pumps. After 14 days of drug treatment, rats were weighed, anesthetized, and sacrificed. Blood samples were collected by venipuncture of the abdominal aorta. Plasma samples were analyzed for testosterone, FSH, LH and osteocalcin. Testosterone concentrations were measured by AniLytics Inc. (Gaithersburg, Md.). FSH and LH levels were measured by the National Hormone and Peptide Program (Dr. A F Parlow, UCLA, CA). Plasma osteocalcin levels were determined using a commercially available rat osteocalcin EIA kit from Biomedical Technologies Inc. (Stoughton, Mass.). The ventral prostates, seminal vesicles, and levator ani muscle were removed and weighed. Osmotic pumps were also removed from animals to check for correct pump operation. The weights of all organs were normalized to body weight, and analyzed for any statistically significant differences between groups using single-factor ANOVA with the alpha value set a priori at p<0.05. The weights of prostates and seminal vesicles were used as indices for evaluation of androgenic activity, and the levator ani muscle weight was used to evaluate the anabolic activity. Statistical analyses of parameters from complete blood count or serum chemical profiling, wherever applicable, were performed by single-factor ANOVA with the alpha value set a priori at p<0.05.

Assay [3] in a line: Plasma testosterone levels in male rats of varying hormonal status. The conditions noted are these: 0.5 mg/day; for Plasma testosterone levels: osmotic pump, 14 days, n = 5.
Text: as §1

The nature of assay [4]: Plasma FSH levels in male rats of varying hormonal status. The note with it: 0.5 mg/day; for Plasma FSH levels: 14 days, n = 5.
Text: as §1

The nature of assay [5]: Plasma LH levels in male rats of varying hormonal status. The note with it: 0.5 mg/day; for Plasma LH levels: 14 days, n = 5.
Text: as §1

Assay [6] is described as follows: Plasma osteocalcin levels in male rats of varying hormonal status. The conditions noted are these: 0.5 mg/day; for Plasma osteocalcin levels: 14 days, n = 5.
Text: as §1

For assay [7], the system named is androgen-responsive tissues (prostate, seminal vesicles, levator ani muscle). The assay is described as follows: Androgenic and anabolic activity: weight of androgen-responsive tissues in intact, hemi-orchidectomized and castrated rats. The conditions noted are these: 0.5 mg/day, 14 days, n = 5. The procedure: FIG. 3: Androgenic and Anabolic activity of Compound VI and Compound VII in rats. Male rats with normal testicular function (no surgical manipulation) were left untreated (Intact), treated with compound VI (0.5 mg/day), compound VII (0.5 mg/day) or testosterone proprionate (TP, 0.5 mg/day), and the weight of androgen-responsive tissues (prostate—FIG. 3A, semimal vesicles—FIG. 3B, and levator ani muscle—FIG. 3C) was determined.
FIG. 4: Androgenic and Anabolic activity of Compound VI and Compound VII in rats. Male rats received unilateral orchidectomy (Hemi-orchidectomized) and were left untreated (Intact), treated with vehicle alone (PEG 300), Compound VI (0.5 mg/day), Compound VII (0.5 mg/day), or testosterone proprionate (TP, 0.5 mg/day), and the weight of androgen-responsive tissues (prostate—FIG. 4A, semimal vesicles—FIG. 4B, and levator ani muscle—FIG. 4C) was determined.
FIG. 5: Androgenic and Anabolic activity of Compound VI and Compound VII in rats. Male rats received bilateral orchidectomy (Castrated) and were left untreated (Intact), treated with vehicle alone (PEG 300), Compound VI (0.5 mg/day), Compound VII (0.5 mg/day), or testosterone proprionate (TP, 0.5 mg/day), and the weight of androgen-responsive tissues (prostate—FIG. 5A, semimal vesicles—FIG. 5B, and levator ani muscle—FIG. 5C) was determined.
as §1

Assay [8] has as its system myosin heavy chain (MHC) IIb mRNA. Briefly: Myosin heavy chain (MHC) IIb mRNA expression in masseter muscle by RT-PCR. The conditions noted are these: masseter muscle of intact female rats; untreated control = 100%. The source says:
MHC is the predominant protein in skeletal muscle encoded by a multigene family expressed in a tissue-specific and developmentally regulated manner [Adams et al 1999]. In steady state, mRNA expression usually parallels the pattern of MHC protein expression. Because transcription of MHC mRNA occurs in advance of MHC protein translation, and the increased sensitivity of RT-PCR compared to western blotting, rapid changes in mRNA expression can be detected and used to analyze the subtle dynamic effects of muscle anabolism [Wright et al 1997].
The masseter muscle dissected from untreated intact female rats was set as the control level (representing 100%) of MHC IIb expression (FIG. 7A). Intact female rats treated with androgens were evaluated against the untreated controls for the effect of treatment on MHC IIb from masseter.

The mark [9] stands for this setting: TP statement for castrated male rats.

Consider `C[C@]12CCC(=O)C[C@@H]1CC[C@@H]1[C@@H]2CC[C@]2(C)[C@@H](O)CC[C@@H]12` [DHT, dihydrotestosterone, reference compound], for which, in assay [1] (ovariectomized female rat bone model), the “potency comparison Compound VI versus DHT” value is reported as “less potent than Compound VI”. In addition, the “increase in BMC” value in assay [1] (ovariectomized female rats, 1.0 mg/day, treated for 120 days (group 5; DHT 1 mg/day)) was determined as 15%.
For `CC(=O)Nc1ccc(OC[C@](C)(O)C(=O)Nc2ccc([N+](=O)[O-])c(C(F)(F)F)c2)cc1` [GTx-017], in assay [2] (Anabolic, Levator Ani Muscle), the “ED50” value came to 0.14 ± 0.01 mg/day, the “Emax (% of Intact Control)” value was 101.0 ± 1.0 % of Intact Control, the “Relative Afficacy” value is reported as 0.97 and the “Relative Potency” value is 1.07. Moreover, in assay [2] (Androgenic, Prostate), the “ED50” value was determined as 0.43 ± 0.01 mg/day, the “Emax (% of Intact Control)” value was 35.2 ± 0.4 % of Intact Control, the “Relative Afficacy” value is 0.29 and the “Relative Potency” value was found to be 0.30. In assay [2] (Androgenic, Seminal Vesicle), the “ED50” value is listed as 0.55 ± 0.02 mg/day, the “Emax (% of Intact Control)” value is on record as 28.5 ± 0.8 % of Intact Control, the “Relative Afficacy” value is given as 0.40 and the “Relative Potency” value was determined as 0.22.
Regarding `CCC(=O)O[C@H]1CC[C@H]2[C@@H]3CCC4=CC(=O)CC[C@]4(C)[C@H]3CC[C@]12C` [TP, testosterone propionate, reference compound], the “plasma testosterone levels versus controls” value in assay [3] (castrated male rats) is recorded as “higher plasma testosterone levels”. Further, the results for the Plasma testosterone levels in assay [3] (castrated male rats), in assay [3] (hemi-orchidectomized male rats) and in assay [3] (intact male rats) were 0.258 ± 0.103 ng/mL, 2.366 ± 1.232 ng/mL and 1.482 ± 0.416 ng/mL, respectively. Moreover, the “effect on plasma FSH levels” value in assay [4] (setting [9]) was “significant decrease”. Besides, the “Plasma FSH levels” value in assay [4] (castrated male rats) came out at 58.0 ± 6.9 ng/mL; in assay [4] (hemi-orchidectomized male rats), 17.2 ± 3.3 ng/mL; in assay [4] (intact male rats), 11.4 ± 1.7 ng/mL. In addition, in assay [5] (setting [9]), the “effect on plasma LH levels” value is recorded as “significant decrease”. The “Plasma LH levels” value is 6.702 ± 1.513 ng/mL in assay [5] (castrated male rats), 0.124 ± 0.092 ng/mL in assay [5] (hemi-orchidectomized male rats) and 0.168 ± 0.173 ng/mL in assay [5] (intact male rats). Also, the “effect on plasma osteocalcin levels” value in assay [6] (Compound VI statement for hemi-orchidectomized and castrated animals) is “no effect”. Also, the Plasma osteocalcin levels in assay [6] (castrated male rats) was 65.976 ± 11.213 ng/mL; in assay [6] (hemi-orchidectomized male rats), 77.236 ± 24.418 ng/mL; in assay [6] (intact male rats), 74.952 ± 15.399 ng/mL. Also, the figures for the “Levator Ani weight” value in assay [7] (castrated rats), in assay [7] (hemi-orchidectomized rats) and in assay [7] (intact rats) were 87.27 ± 10.25 % of intact control, 98.63 ± 10.47 % of intact control and 95.61 ± 9.34 % of intact control, respectively. The Prostate weight in assay [7] (castrated rats) is recorded as 76.78 ± 10.43 % of intact control; in assay [7] (hemi-orchidectomized rats) it was 98.57 ± 7.98 % of intact control; in assay [7] (intact rats), 97.45 ± 10.82 % of intact control. Moreover, the figures for the “Seminal Vesicle weight” value in assay [7] (castrated rats), in assay [7] (hemi-orchidectomized rats) and in assay [7] (intact rats) were 63.48 ± 17.05 % of intact control, 114.19 ± 23.81 % of intact control and 103.95 ± 13.23 % of intact control, respectively. Further, the “ED50” value in assay [2] (Anabolic, Levator Ani Muscle) was 0.15 ± 0.03 mg/day; in assay [2] (Androgenic, Prostate), 0.13 ± 0.03 mg/day; in assay [2] (Androgenic, Seminal Vesicle), 0.12 ± 0.02 mg/day. Moreover, the “Emax (% of Intact Control)” value in assay [2] (Anabolic, Levator Ani Muscle) is given as 104.2 ± 10.1 % of Intact Control; in assay [2] (Androgenic, Prostate), 120.6 ± 13.4 % of Intact Control; in assay [2] (Androgenic, Seminal Vesicle) it was 70.0 ± 18.8 % of Intact Control. Moreover, the “Relative Afficacy” value in assay [2] (Anabolic, Levator Ani Muscle) turned out to be 1.00; in assay [2] (Androgenic, Prostate), 1.00; in assay [2] (Androgenic, Seminal Vesicle), 1.00. Moreover, the “Relative Potency” value in assay [2] (Anabolic, Levator Ani Muscle) is 1.00; in assay [2] (Androgenic, Prostate) it was 1.00; in assay [2] (Androgenic, Seminal Vesicle) it was 1.00. The “MHC type IIb transcription, of untreated control” value in assay [8] was 133%.
Regarding `C[C@](O)(COc1ccc(F)cc1)C(=O)Nc1ccc([N+](=O)[O-])c(C(F)(F)F)c1` [GTx-014], in assay [2] (Anabolic, Levator Ani Muscle), the “ED50” value turned out to be 0.44 ± 0.01 mg/day, the “Emax (% of Intact Control)” value is on record as 74.9 ± 0.4 % of Intact Control, the “Relative Afficacy” value worked out at 0.72 and the “Relative Potency” value stood at 0.34. Moreover, in assay [2] (Androgenic, Prostate), the “ED50” value is 0.42 ± 0.04 mg/day, the “Emax (% of Intact Control)” value was 14.5 ± 0.7 % of Intact Control, the “Relative Afficacy” value amounted to 0.12 and the “Relative Potency” value was 0.31. Further, in assay [2] (Androgenic, Seminal Vesicle), the “ED50” value is given as 0.38 ± 0.26 mg/day, the “Emax (% of Intact Control)” value is recorded as 12.7 ± 3.1 % of Intact Control, the “Relative Afficacy” value came to 0.18 and the “Relative Potency” value is on record as 0.32.
